Assay results as given in PubChem BioAssay AID328 (DTP/NCI, 2004).
Where “and” joins values, the source holds several entries; their conditions need not be identical. Identical values can stand only once. Toxic doses and inconclusive results are not listed.

Tested on: BDF1 mice, P388 leukemia ip, median survival T/C
Experiment: NCI In Vivo Anticancer Drug Screen. Data for tumor model P388 Leukemia (intraperitoneal) in B6D2F1 (BDF1) mice
Details: endpoint: median survival time, higher = longer survival
Outline: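 Read-out is survival of treated animals expressed relative to the vehicle group, as a T/C ratio.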

[1] = dose: 4.0 mg/kg/injection, schedule: Q01DX009 (ip), vehicle: saline with Tween-80
[2] = dose: 8.0 mg/kg/injection, schedule: Q01DX009 (ip), vehicle: saline with Tween-80
[3] = dose: 16.0 mg/kg/injection, schedule: Q01DX009 (ip), vehicle: saline with Tween-80
[4] = dose: 25.0 mg/kg/injection, schedule: Q01DX009 (ip), vehicle: saline
[5] = dose: 50.0 mg/kg/injection, schedule: Q01DX009 (ip), vehicle: saline
[6] = dose: 50.0 mg/kg/injection, schedule: Q04DX003 (ip), vehicle: saline
[7] = dose: 50.0 mg/kg/injection, schedule: Q01DX009 (ip), vehicle: saline with Tween-80
[8] = dose: 100.0 mg/kg/injection, schedule: Q01DX009 (ip), vehicle: saline with Tween-80
[9] = dose: 50.0 mg/kg/injection, schedule: Q04DX003 (ip), vehicle: saline with Tween-80

C[n+]1ccc(Nc2ccc(NC(=O)c3ccc(Nc4cc[n+](C)c5ccc(N)cc45)cc3N)cc2)cc1
T/C (dose: 0.5 mg/kg/injection, schedule: Q01DX010 (ip), vehicle: saline): 150 % of control | T/C (dose: 0.88 mg/kg/injection, schedule: Q04DX003 (ip), vehicle: saline with Tween-80): 123 % of control | T/C (dose: 1.0 mg/kg/injection, schedule: Q01DX010 (ip), vehicle: saline): 160 % of control | T/C (dose: 1.56 mg/kg/injection, schedule: Q01DX009 (ip), vehicle: Klucel (hydroxypropylcellulose) (HPC)): 194 % of control | T/C (dose: 2.0 mg/kg/injection, schedule: Q01DX009 (ip), vehicle: saline with Tween-80): 150 % of control | T/C (dose: 2.0 mg/kg/injection, schedule: Q01DX010 (ip), vehicle: saline): 205 % of control | T/C (dose: 3.0 mg/kg/injection, schedule: Q04DX003 (ip), vehicle: saline with Tween-80): 152 % of control | T/C (dose: 3.12 mg/kg/injection, schedule: Q01DX009 (ip), vehicle: Klucel (hydroxypropylcellulose) (HPC)): 252 % of control and 216 % of control | T/C (dose: 3.12 mg/kg/injection, schedule: Q01DX009 (ip), vehicle: saline): 169 % of control | T/C (dose: 3.6 mg/kg/injection, schedule: Q04DX003 (ip), vehicle: saline with Tween-80): 154 % of control | T/C [1]: 229 % of control | T/C (dose: 4.0 mg/kg/injection, schedule: Q01DX010 (ip), vehicle: saline): 300 % of control | T/C (dose: 5.56 mg/kg/injection, schedule: Q04DX003 (ip), vehicle: saline): 168 % of control | T/C (dose: 5.6 mg/kg/injection, schedule: Q04DX003 (ip), vehicle: saline with Tween-80): 159 % of control | T/C (dose: 6.25 mg/kg/injection, schedule: Q01DX009 (ip), vehicle: Klucel (hydroxypropylcellulose) (HPC)): 266 % of control and 267 % of control | T/C (dose: 6.25 mg/kg/injection, schedule: Q01DX009 (ip), vehicle: saline): 172 % of control | T/C (dose: 6.25 mg/kg/injection, schedule: Q01DX010 (ip), vehicle: saline): 300 % of control | T/C (dose: 6.25 mg/kg/injection, schedule: Q04DX003 (ip), vehicle: saline): 163 % of control | T/C [2]: 250 % of control | T/C (dose: 8.3 mg/kg/injection, schedule: Q04DX003 (ip), vehicle: saline with Tween-80): 177 % of control | T/C (dose: 8.33 mg/kg/injection, schedule: Q04DX003 (ip), vehicle: saline): 227 % of control | T/C (dose: 12.5 mg/kg/injection, schedule: Q01DX009 (ip), vehicle: Klucel (hydroxypropylcellulose) (HPC)): 267 % of control and 199 % of control | T/C (dose: 12.5 mg/kg/injection, schedule: Q01DX009 (ip), vehicle: saline): 172 % of control | T/C (dose: 12.5 mg/kg/injection, schedule: Q01DX010 (ip), vehicle: saline): 300 % of control | T/C (dose: 12.5 mg/kg/injection, schedule: Q04DX003 (ip), vehicle: saline with Tween-80): 209 % of control | T/C (dose: 12.5 mg/kg/injection, schedule: Q04DX003 (ip), vehicle: saline): 200 % of control and 218 % of control and 186 % of control | T/C [3]: 250 % of control | T/C (dose: 18.7 mg/kg/injection, schedule: Q04DX003 (ip), vehicle: saline with Tween-80): 263 % of control | T/C (dose: 25.0 mg/kg/injection, schedule: Q01DX009 (ip), vehicle: Klucel (hydroxypropylcellulose) (HPC)): 116 % of control | T/C [4]: 172 % of control | T/C (dose: 25.0 mg/kg/injection, schedule: Q04DX003 (ip), vehicle: saline): 272 % of control and 254 % of control | T/C (dose: 26.0 mg/kg/injection, schedule: Q04DX003 (ip), vehicle: saline with Tween-80): 272 % of control | T/C (dose: 32.0 mg/kg/injection, schedule: Q01DX009 (ip), vehicle: saline with Tween-80): 112 % of control | T/C (dose: 40.0 mg/kg/injection, schedule: Q04DX003 (ip), vehicle: saline with Tween-80): 272 % of control | T/C [5]: 106 % of control | T/C (dose: 50.0 mg/kg/injection, schedule: Q01DX010 (ip), vehicle: saline): 90 % of control | T/C [6]: 310 % of control | T/C (dose: 60.0 mg/kg/injection, schedule: Q04DX003 (ip), vehicle: saline with Tween-80): 272 % of control

CC(=O)OC1C(OCc2ccccc2)OC(COCc2ccccc2)C(OC2OC(COCc3ccccc3)C(OCc3ccccc3)C(OCc3ccccc3)C2OCc2ccccc2)C1OCc1ccccc1 (centres undefined)
T/C (dose: 5.31 mg/kg/injection, schedule: Q01DX009 (ip), vehicle: Klucel (hydroxypropylcellulose) (HPC)): 100 % of control and 104 % of control | T/C (dose: 10.62 mg/kg/injection, schedule: Q01DX009 (ip), vehicle: Klucel (hydroxypropylcellulose) (HPC)): 100 % of control | T/C (dose: 21.25 mg/kg/injection, schedule: Q01DX009 (ip), vehicle: Klucel (hydroxypropylcellulose) (HPC)): 87 % of control and 100 % of control

C=CCN(CC=C)CCSC(=S)NCCOC
T/C [7]: 95 % of control | T/C [8]: 100 % of control | T/C (dose: 200.0 mg/kg/injection, schedule: Q01DX009 (ip), vehicle: saline with Tween-80): 95 % of control

CCCCCC(C)C(=O)CCCC (centres undefined) (tested in a mixture with another compound)
T/C [9]: 104 % of control | T/C (dose: 100.0 mg/kg/injection, schedule: Q04DX003 (ip), vehicle: saline with Tween-80): 104 % of control | T/C (dose: 200.0 mg/kg/injection, schedule: Q04DX003 (ip), vehicle: saline with Tween-80): 100 % of control

COc1cccc(CC(N)=O)c1OC
T/C [4]: 99 % of control | T/C [5]: 99 % of control | T/C [6]: 109 % of control | T/C (dose: 100.0 mg/kg/injection, schedule: Q01DX009 (ip), vehicle: saline): 97 % of control | T/C (dose: 100.0 mg/kg/injection, schedule: Q04DX003 (ip), vehicle: saline): 87 % of control and 99 % of control | T/C (dose: 200.0 mg/kg/injection, schedule: Q01DX009 (ip), vehicle: saline): 92 % of control | T/C (dose: 200.0 mg/kg/injection, schedule: Q04DX003 (ip), vehicle: saline): 90 % of control and 94 % of control | T/C (dose: 400.0 mg/kg/injection, schedule: Q04DX003 (ip), vehicle: saline): 100 % of control

NNc1nncn2c1cc1ccccc12
T/C [7]: 86 % of control | T/C [8]: 107 % of control

O=C1C=C/C(=N/S(=O)(=O)c2ccccc2)c2ccccc21
T/C (dose: 0.37 mg/kg/injection, schedule: Q01DX009 (ip), vehicle: DMSO): 100 % of control | T/C (dose: 0.75 mg/kg/injection, schedule: Q01DX009 (ip), vehicle: DMSO): 100 % of control | T/C (dose: 1.5 mg/kg/injection, schedule: Q01DX009 (ip), vehicle: DMSO): 100 % of control | T/C (dose: 12.0 mg/kg/injection, schedule: Q01DX009 (ip), vehicle: DMSO): 92 % of control | T/C (dose: 25.0 mg/kg/injection, schedule: Q04DX003 (ip), vehicle: DMSO): 91 % of control | T/C (dose: 50.0 mg/kg/injection, schedule: Q04DX003 (ip), vehicle: DMSO): 104 % of control | T/C (dose: 100.0 mg/kg/injection, schedule: Q04DX003 (ip), vehicle: DMSO): 100 % of control

CC(C)=CCCC(C)=C(C(=O)O)C(=O)O
T/C (dose: 100.0 mg/kg/injection, schedule: Q04DX003 (ip), vehicle: Klucel (hydroxypropylcellulose) (HPC)): 113 % of control | T/C (dose: 200.0 mg/kg/injection, schedule: Q04DX003 (ip), vehicle: Klucel (hydroxypropylcellulose) (HPC)): 111 % of control | T/C (dose: 400.0 mg/kg/injection, schedule: Q04DX003 (ip), vehicle: Klucel (hydroxypropylcellulose) (HPC)): 110 % of control

CC1CCN(SSc2nc3ccccc3s2)CC1
T/C [7]: 110 % of control | T/C [8]: 110 % of control

CN=C(N)c1ccc(N=C(N)c2ccc(N=C(N)c3ccc(N=C(O)c4cccc(C(O)=Nc5ccc(C(N)=Nc6ccc(C(N)=Nc7ccc(C(N)=NC)cc7)cc6)cc5)c4)cc3)cc2)cc1
T/C [1]: 154 % of control | T/C (dose: 4.0 mg/kg/injection, schedule: Q04DX003 (ip), vehicle: saline with Tween-80): 123 % of control | T/C (dose: 6.0 mg/kg/injection, schedule: Q04DX003 (ip), vehicle: saline with Tween-80): 150 % of control | T/C [2]: 177 % of control | T/C (dose: 9.0 mg/kg/injection, schedule: Q04DX003 (ip), vehicle: saline with Tween-80): 168 % of control | T/C (dose: 11.0 mg/kg/injection, schedule: Q01DX009 (ip), vehicle: saline with Tween-80): 200 % of control | T/C (dose: 12.0 mg/kg/injection, schedule: Q01DX009 (ip), vehicle: saline with Tween-80): 166 % of control | T/C (dose: 14.0 mg/kg/injection, schedule: Q04DX003 (ip), vehicle: saline with Tween-80): 168 % of control | T/C [3]: 181 % of control and 183 % of control | T/C (dose: 16.5 mg/kg/injection, schedule: Q01DX009 (ip), vehicle: saline with Tween-80): 227 % of control | T/C (dose: 22.0 mg/kg/injection, schedule: Q04DX003 (ip), vehicle: saline with Tween-80): 159 % of control and 177 % of control and 204 % of control | T/C (dose: 33.0 mg/kg/injection, schedule: Q04DX003 (ip), vehicle: saline with Tween-80): 250 % of control and 177 % of control | T/C (dose: 37.5 mg/kg/injection, schedule: Q01DX009 (ip), vehicle: saline with Tween-80): 233 % of control and 194 % of control | T/C [9]: 250 % of control and 190 % of control | T/C (dose: 75.0 mg/kg/injection, schedule: Q04DX003 (ip), vehicle: saline with Tween-80): 231 % of control and 200 % of control
